Test results as given in PubChem BioAssay AID1259407 (Chemical Carcinogenesis Research Information System (CCRIS), 2018).
Active and inactive are the calls of the source. No rule for the calls is given here.

Tested on: CCRIS mutagenicity, Ames/micronucleus/aberration tests
Assay: CCRIS mutagenicity studies
[1] = Test System: AMES SALMONELLA TYPHIMURIUM, Strain/Indicator: TA98, Metabolic Activation: NONE, Method: PREINCUBATION
[2] = Test System: AMES SALMONELLA TYPHIMURIUM, Strain/Indicator: TA98, Metabolic Activation: NONE, Method: STANDARD PLATE
[3] = Test System: AMES SALMONELLA TYPHIMURIUM, Strain/Indicator: TA100, Metabolic Activation: NONE, Method: STANDARD PLATE
[4] = Test System: AMES SALMONELLA TYPHIMURIUM, Strain/Indicator: TA102, Metabolic Activation: NONE, Method: STANDARD PLATE
[5] = Test System: AMES SALMONELLA TYPHIMURIUM, Strain/Indicator: TA97, Metabolic Activation: NONE, Method: STANDARD PLATE
[6] = Test System: AMES SALMONELLA TYPHIMURIUM, Strain/Indicator: TA98, Metabolic Activation: RAT, LIVER, S-9, AROCLOR 1254, Method: STANDARD PLATE
[7] = Test System: AMES SALMONELLA TYPHIMURIUM, Strain/Indicator: TA100, Metabolic Activation: RAT, LIVER, S-9, AROCLOR 1254, Method: STANDARD PLATE

CN1COCN(Cc2cnc(Cl)s2)/C1=N/[N+](=O)[O-]
mutagenic call (End Point: IN VIVO MICRONUCLEUS, Test System: BONE MARROW POLYCHROMATIC ERYTHROCYTES, Species: RAT, Strain/Sex: WISTAR/FEMALE, Route: ORAL (GAVAGE)): active; positive | mutagenic call (End Point: IN VIVO MICRONUCLEUS, Test System: POLYCHROMATIC ERYTHROCYTES FROM COLONIC CRYPT EPITHELIAL CELLS, Species: RAT, Strain/Sex: WISTAR/FEMALE, Route: ORAL (GAVAGE)): active; positive

CC(=O)CC1CCC(=O)CCC(=O)OC(CC(C)=O)CCC(O)CCC(=O)O1 (stereo not given)
mutagenic call (Test System: CHINESE HAMSTER V-79, Strain/Indicator: V-79 (HPRT)/6-THIOGUANINE, Metabolic Activation: NONE): inactive; negative

O=[N+]([O-])c1ccc2ncccc2c1
mutagenic call [1]: active; positive | mutagenic call (Test System: AMES SALMONELLA TYPHIMURIUM, Strain/Indicator: TA98, Metabolic Activation: RAT, LIVER, S-9, Method: PREINCUBATION): active; positive | mutagenic call (Test System: AMES SALMONELLA TYPHIMURIUM, Strain/Indicator: TA100, Metabolic Activation: NONE, Method: PREINCUBATION): active; positive | mutagenic call (Test System: AMES SALMONELLA TYPHIMURIUM, Strain/Indicator: TA100, Metabolic Activation: RAT, LIVER, S-9, Method: PREINCUBATION): active; positive

OOC1CCCc2ccccc21 (stereo not given)
mutagenic call [2]: inactive; negative | mutagenic call [3]: active; positive | mutagenic call [4]: inactive; negative

Cc1nc2c(c3[nH]c4ccccc4c13)C(=O)C(N1CC1)=CC2=O
mutagenic call [5]: active; positive | mutagenic call (Test System: AMES SALMONELLA TYPHIMURIUM, Strain/Indicator: TA97, Metabolic Activation: RAT, LIVER, S-9, AROCLOR 1254, Method: STANDARD PLATE): active; positive | mutagenic call [2]: active; positive | mutagenic call [6]: active; positive | mutagenic call [3]: active; positive | mutagenic call [7]: active; positive | mutagenic call [4]: active; positive | mutagenic call (Test System: AMES SALMONELLA TYPHIMURIUM, Strain/Indicator: TA102, Metabolic Activation: RAT, LIVER, S-9, AROCLOR 1254, Method: STANDARD PLATE): active; positive

CC(=O)OCCN(CCOC(C)=O)c1ccc([N+](=O)[O-])c2c(NCCCN(C)C)c3ccccc3nc12
mutagenic call [2]: active; positive | mutagenic call [3]: active; positive

O=c1c(Cl)c(Cl)cnn1S(=O)(=O)c1ccc([N+](=O)[O-])cc1
mutagenic call [2]: active; positive | mutagenic call [6]: inactive; negative | mutagenic call [3]: active; positive | mutagenic call [7]: active; positive | mutagenic call (Test System: AMES SALMONELLA TYPHIMURIUM, Strain/Indicator: TA1535, Metabolic Activation: NONE, Method: STANDARD PLATE): inactive; negative | mutagenic call (Test System: AMES SALMONELLA TYPHIMURIUM, Strain/Indicator: TA1535, Metabolic Activation: RAT, LIVER, S-9, AROCLOR 1254, Method: STANDARD PLATE): active; positive | mutagenic call (Test System: AMES SALMONELLA TYPHIMURIUM, Strain/Indicator: TA1537, Metabolic Activation: NONE, Method: STANDARD PLATE): inactive; negative | mutagenic call (Test System: AMES SALMONELLA TYPHIMURIUM, Strain/Indicator: TA1537, Metabolic Activation: RAT, LIVER, S-9, AROCLOR 1254, Method: STANDARD PLATE): inactive; negative

CC1=C2C(=CC(C)(C)[C@@H]2O)C(=O)[C@](C)(O)C12CC2
mutagenic call [1]: active; positive

Cc1ccc2ccc3ccc(C)cc3c2c1
mutagenic call [5]: inactive; negative | mutagenic call (Test System: AMES SALMONELLA TYPHIMURIUM, Strain/Indicator: TA97, Metabolic Activation: RAT, LIVER, S-9, PCB, Method: STANDARD PLATE): inactive; negative | mutagenic call [2]: inactive; negative | mutagenic call (Test System: AMES SALMONELLA TYPHIMURIUM, Strain/Indicator: TA98, Metabolic Activation: RAT, LIVER, S-9, PCB, Method: STANDARD PLATE): active; positive | mutagenic call [3]: inactive; negative | mutagenic call (Test System: AMES SALMONELLA TYPHIMURIUM, Strain/Indicator: TA100, Metabolic Activation: RAT, LIVER, S-9, PCB, Method: STANDARD PLATE): inactive; negative

O=Nc1ccc2ccccc2c1
mutagenic call [2]: active; positive | mutagenic call (Test System: AMES SALMONELLA TYPHIMURIUM, Strain/Indicator: TA98, Metabolic Activation: S-9, Method: STANDARD PLATE): active; positive | mutagenic call [3]: active; positive | mutagenic call (Test System: AMES SALMONELLA TYPHIMURIUM, Strain/Indicator: TA100, Metabolic Activation: S-9, Method: STANDARD PLATE): active; positive | mutagenic call (Test System: AMES SALMONELLA TYPHIMURIUM, Strain/Indicator: TA1538, Metabolic Activation: NONE, Method: STANDARD PLATE): active; positive
